From patent publication US11730778B2, “Method of increasing the level and production of metabolized phytonutrients in a subject” (ACCESS BUSINESS GROUP INTERNATIONAL LLC, priority 2019, dated 2023)

Tested on: intestinal microbiota (fecal samples) of human subjects
Experiment: in-vitro fermentations of fecal samples (intestinal microbiota-representing microarray) with phytonutrient precursor compounds
Assay type: in vitro ADME
Conditions: in-vitro fermentation; for Phytonutrient Producer Status: conversion of the phytonutrient precursor compound, S1: fecal sample of Subject 1 (S1); for Phytonutrient Producer Status: conversion of the phytonutrient precursor compound, S2: fecal sample of Subject 2 (S2); for Phytonutrient Producer Status: conversion of the phytonutrient precursor compound, S3: fecal sample of Subject 3 (S3); for Phytonutrient Producer Status: conversion of the phytonutrient precursor compound, S4: fecal sample of Subject 4 (S4); for Phytonutrient Producer Status: conversion of the phytonutrient precursor compound, S5: fecal sample of Subject 5 (S5); for Phytonutrient Producer Status: conversion of the phytonutrient precursor compound, S6: fecal sample of Subject 6 (S6); for Phytonutrient Producer Status: conversion of the phytonutrient precursor compound, S7: fecal sample of Subject 7 (S7); for Phytonutrient Producer Status: conversion of the phytonutrient precursor compound, S8: fecal sample of Subject 8 (S8); for Phytonutrient Producer Status: conversion of the phytonutrient precursor compound, S9: fecal sample of Subject 9 (S9); for Phytonutrient Producer Status: conversion of the phytonutrient precursor compound, S10: fecal sample of Subject 10 (S10); for Phytonutrient Producer Status: conversion of the phytonutrient precursor compound, S11: fecal sample of Subject 11 (S11)
Experimental: The phytonutrient producer status of 11 human subjects (“Subjects 1-11”, or “S1”-“S11”, respectively) was assessed by determining the microbial metabolism of various phytonutrient precursor compounds. […] The metabolism of the phytonutrient precursor compound in each assay was then determined via monitoring conversion (+), partial conversion (±), or no conversion (−) of the phytonutrient precursor compound over time.

| Structure (SMILES) | Phytonutrient Producer Status: conversion of the phytonutrient precursor compound, S1 | Phytonutrient Producer Status: conversion of the phytonutrient precursor compound, S2 | Phytonutrient Producer Status: conversion of the phytonutrient precursor compound, S3 | Phytonutrient Producer Status: conversion of the phytonutrient precursor compound, S4 | Phytonutrient Producer Status: conversion of the phytonutrient precursor compound, S5 | Phytonutrient Producer Status: conversion of the phytonutrient precursor compound, S6 | Phytonutrient Producer Status: conversion of the phytonutrient precursor compound, S7 | Phytonutrient Producer Status: conversion of the phytonutrient precursor compound, S8 | Phytonutrient Producer Status: conversion of the phytonutrient precursor compound, S9 | Phytonutrient Producer Status: conversion of the phytonutrient precursor compound, S10 | Phytonutrient Producer Status: conversion of the phytonutrient precursor compound, S11 |
| --- | --- | --- | --- | --- | --- | --- | --- | --- | --- | --- | --- |
| COc1cc(C[C@@H](CO[C@@H]2O[C@H](CO)[C@@H](O)[C@H](O)[C@H]2O)[C@H](CO[C@@H]2O[C@H](CO)[C@@H](O)[C@H](O)[C@H]2O)Cc2ccc(O)c(OC)c2)ccc1O [Secoisolariciresinol diglucoside] | + | + | ± | + | + | ± | ± | ± | + | + | + |
| O=c1c(O)c(-c2ccc(O)c(O)c2)oc2cc(O)cc(O)c12 [Quercetin] | − | + | + | + | − | + | + | − | − | + | − |
| COc1ccc([C@@H]2CC(=O)c3c(O)cc(O[C@@H]4O[C@H](CO[C@@H]5O[C@@H](C)[C@H](O)[C@@H](O)[C@H]5O)[C@@H](O)[C@H](O)[C@H]4O)cc3O2)cc1O [Hesperidin] | + | + | + | + | ± | + | + | + | + | + | + |
| Oc1cc(O)c2c(c1)O[C@H](c1cc(O)c(O)c(O)c1)[C@H](O)C2 [Epigallocatechol] | + | + | ± | + | + | + | + | + | + | + | + |
| OC[C@H]1O[C@@H](Oc2cc3c(O)cc(O)cc3[o+]c2-c2ccc(O)c(O)c2)[C@H](O)[C@@H](O)[C@@H]1O [Cyanidin-3-glucoside] | ± | ± | + | ± | ± | + | + | ± | + | + | + |
| O=c1oc2c(O)c(O)cc3c(=O)oc4c(O)c(O)cc1c4c23 [Ellagic acid] | ± | ± | ± | − | − | − | − | ± | − | ± | − |
